# Reference: PubChem BioAssay (NCI)
#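 These data come from cells grown in 96-well plates and exposed to compound for 48 hours at five concentrations. Here, GI50 denotes the concentration required for 50% inhibition of growth. TGI denotes the concentration required for complete inhibition of growth.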
# Columns and labels:
# Assay in all cases: NCI-60 cell line screen, 48 h
# 786-0 renal = tested on: 786-0 renal
# A498 renal = tested on: A498 renal
# A549 NSCLC = tested on: A549 NSCLC
# ACHN renal = tested on: ACHN renal
# BT-549 breast = tested on: BT-549 breast
# CAKI-1 renal = tested on: CAKI-1 renal
# CCRF-CEM leukemia = tested on: CCRF-CEM leukemia
# COLO 205 colon = tested on: COLO 205 colon
# DU-145 prostate = tested on: DU-145 prostate
# EKVX NSCLC = tested on: EKVX NSCLC
# HCC-2998 colon = tested on: HCC-2998 colon
# HCT-116 colon = tested on: HCT-116 colon
# HCT-15 colon = tested on: HCT-15 colon
# HL-60(TB) leukemia = tested on: HL-60(TB) leukemia
# HOP-62 NSCLC = tested on: HOP-62 NSCLC
# HOP-92 NSCLC = tested on: HOP-92 NSCLC
# HS 578T breast = tested on: HS 578T breast
# HT29 colon = tested on: HT29 colon
# IGROV1 ovarian = tested on: IGROV1 ovarian
# K-562 leukemia = tested on: K-562 leukemia
# KM12 colon = tested on: KM12 colon
# LOX IMVI melanoma = tested on: LOX IMVI melanoma
# M14 melanoma = tested on: M14 melanoma
# MCF7 breast = tested on: MCF7 breast
# MDA-MB-231 breast = tested on: MDA-MB-231 breast
# MDA-MB-435 = tested on: MDA-MB-435
# MOLT-4 leukemia = tested on: MOLT-4 leukemia
# NCI-H226 lung = tested on: NCI-H226 lung
# NCI-H23 lung = tested on: NCI-H23 lung
# NCI-H460 lung = tested on: NCI-H460 lung
# NCI-H522 lung = tested on: NCI-H522 lung
# NCI/ADR-RES ovarian = tested on: NCI/ADR-RES ovarian
# OVCAR-3 ovarian = tested on: OVCAR-3 ovarian
# OVCAR-4 ovarian = tested on: OVCAR-4 ovarian
# OVCAR-5 ovarian = tested on: OVCAR-5 ovarian
# OVCAR-8 ovarian = tested on: OVCAR-8 ovarian
# PC-3 prostate = tested on: PC-3 prostate
# RPMI-8226 leukemia = tested on: RPMI-8226 leukemia
# SF-268 CNS = tested on: SF-268 CNS
# SF-295 CNS = tested on: SF-295 CNS
# SF-539 CNS = tested on: SF-539 CNS
# SK-MEL-2 melanoma = tested on: SK-MEL-2 melanoma
# SK-MEL-28 melanoma = tested on: SK-MEL-28 melanoma
# SK-MEL-5 melanoma = tested on: SK-MEL-5 melanoma
# SK-OV-3 ovarian = tested on: SK-OV-3 ovarian
# SN12C renal = tested on: SN12C renal
# SNB-19 CNS = tested on: SNB-19 CNS
# SNB-75 CNS = tested on: SNB-75 CNS
# SR leukemia = tested on: SR leukemia
# SW-620 colon = tested on: SW-620 colon
# T-47D breast = tested on: T-47D breast
# TK-10 renal = tested on: TK-10 renal
# U251 CNS = tested on: U251 CNS
# UACC-257 melanoma = tested on: UACC-257 melanoma
# UACC-62 melanoma = tested on: UACC-62 melanoma
# UO-31 renal = tested on: UO-31 renal
compound,measurement,setting,value
Cc1ccc(NC(=O)c2ccc(NC3=C(Cl)C(=O)N(Cc4ccccc4)C3=O)cc2)cc1Cl,GI50,786-0 renal,3.35 µM
same,TGI,786-0 renal,15.9 µM
same,GI50,A498 renal,0.854 µM
same,TGI,A498 renal,26.9 µM
same,GI50,A549 NSCLC,12.9 µM
same,TGI,A549 NSCLC,25.6 µM
same,GI50,ACHN renal,12.6 µM
same,TGI,ACHN renal,25.1 µM
same,GI50,BT-549 breast,1.04 µM
same,TGI,BT-549 breast,5.09 µM
same,GI50,CAKI-1 renal,1.68 µM
same,TGI,CAKI-1 renal,3.81 µM
same,GI50,CCRF-CEM leukemia,1.02 µM
same,TGI,CCRF-CEM leukemia,3.54 µM
same,GI50,COLO 205 colon,13.5 µM
same,TGI,COLO 205 colon,> 100 µM
same,GI50,DU-145 prostate,0.624 µM
same,TGI,DU-145 prostate,7.73 µM
same,GI50,EKVX NSCLC,26.4 µM
same,TGI,EKVX NSCLC,> 100 µM
same,GI50,HCC-2998 colon,2.36 µM
same,TGI,HCC-2998 colon,14.2 µM
same,GI50,HCT-116 colon,3.08 µM
same,TGI,HCT-116 colon,13.3 µM
same,GI50,HCT-15 colon,2.25 µM
same,TGI,HCT-15 colon,13.2 µM
same,TGI,HL-60(TB) leukemia,14.6 µM
same,GI50,HOP-62 NSCLC,12.2 µM
same,TGI,HOP-62 NSCLC,31.9 µM
same,GI50,HOP-92 NSCLC,1.65 µM
same,TGI,HOP-92 NSCLC,11.6 µM
same,GI50,HS 578T breast,10.7 µM
same,TGI,HS 578T breast,34.9 µM
same,GI50,HT29 colon,6.81 µM
same,TGI,HT29 colon,51.3 µM
same,GI50,IGROV1 ovarian,0.49 µM
same,TGI,IGROV1 ovarian,2.64 µM
same,GI50,K-562 leukemia,2.23 µM
same,TGI,K-562 leukemia,12 µM
same,GI50,KM12 colon,31 µM
same,TGI,KM12 colon,> 100 µM
same,GI50,LOX IMVI melanoma,3 µM
same,TGI,LOX IMVI melanoma,14 µM
same,GI50,M14 melanoma,17.6 µM
same,TGI,M14 melanoma,55.1 µM
same,GI50,MCF7 breast,3.3 µM
same,TGI,MCF7 breast,15.4 µM
same,GI50,MDA-MB-231 breast,1.35 µM
same,TGI,MDA-MB-231 breast,11.9 µM
same,GI50,MDA-MB-435,24 µM
same,TGI,MDA-MB-435,> 100 µM
same,GI50,MOLT-4 leukemia,2.35 µM
same,TGI,MOLT-4 leukemia,15.1 µM
same,GI50,NCI-H226 lung,8.69 µM
same,TGI,NCI-H226 lung,23.5 µM
same,GI50,NCI-H23 lung,11.3 µM
same,TGI,NCI-H23 lung,29.8 µM
same,GI50,NCI-H460 lung,10.3 µM
same,TGI,NCI-H460 lung,27 µM
same,GI50,NCI-H522 lung,3.73 µM
same,TGI,NCI-H522 lung,20.5 µM
same,GI50,NCI/ADR-RES ovarian,3.78 µM
same,TGI,NCI/ADR-RES ovarian,21.7 µM
same,GI50,OVCAR-3 ovarian,3.6 µM
same,TGI,OVCAR-3 ovarian,18.7 µM
same,GI50,OVCAR-4 ovarian,14.7 µM
same,TGI,OVCAR-4 ovarian,66.5 µM
same,GI50,OVCAR-5 ovarian,0.774 µM
same,TGI,OVCAR-5 ovarian,10.2 µM
same,GI50,OVCAR-8 ovarian,9.96 µM
same,TGI,OVCAR-8 ovarian,21.5 µM
same,GI50,PC-3 prostate,12.5 µM
same,TGI,PC-3 prostate,25.1 µM
same,GI50,RPMI-8226 leukemia,3.58 µM
same,TGI,RPMI-8226 leukemia,16.5 µM
same,GI50,SF-268 CNS,12.4 µM
same,TGI,SF-268 CNS,33.7 µM
same,GI50,SF-295 CNS,19.9 µM
same,TGI,SF-295 CNS,> 100 µM
same,GI50,SF-539 CNS,2.47 µM
same,TGI,SF-539 CNS,16.4 µM
same,GI50,SK-MEL-2 melanoma,12.5 µM
same,TGI,SK-MEL-2 melanoma,34.1 µM
same,GI50,SK-MEL-28 melanoma,24.2 µM
same,TGI,SK-MEL-28 melanoma,> 100 µM
same,GI50,SK-MEL-5 melanoma,12 µM
same,TGI,SK-MEL-5 melanoma,24.3 µM
same,GI50,SK-OV-3 ovarian,22.7 µM
same,TGI,SK-OV-3 ovarian,54.6 µM
same,GI50,SN12C renal,3.87 µM
same,TGI,SN12C renal,20.5 µM
same,GI50,SNB-19 CNS,60.5 µM
same,TGI,SNB-19 CNS,> 100 µM
same,GI50,SNB-75 CNS,23.9 µM
same,TGI,SNB-75 CNS,76.8 µM
same,GI50,SR leukemia,0.864 µM
same,TGI,SR leukemia,2.98 µM
same,GI50,SW-620 colon,1.99 µM
same,TGI,SW-620 colon,11.8 µM
same,GI50,T-47D breast,2.8 µM
same,TGI,T-47D breast,14.5 µM
same,GI50,TK-10 renal,17.4 µM
same,TGI,TK-10 renal,40.5 µM
same,GI50,U251 CNS,3.97 µM
same,TGI,U251 CNS,17.8 µM
same,GI50,UACC-257 melanoma,13.3 µM
same,TGI,UACC-257 melanoma,35.8 µM
same,GI50,UACC-62 melanoma,15.5 µM
same,TGI,UACC-62 melanoma,59.9 µM
same,GI50,UO-31 renal,1.41 µM
same,TGI,UO-31 renal,2.71 µM
